Measurements: patent US20260124311A1, “POLYMER-DRUG CONJUGATES FOR STING PATHWAY ACTIVATION” (Vanderbilt University, priority 2022, published 2026)
Read-outs that look alike come from different tables or passages of the source.

What was measured:
[1] = E0771 tumor bearing mice, approximately 0.012 μmol diABZI/mouse, organs after 24 hours
[2] = test system: E0771 murine breast tumors; assay: Therapeutic efficacy in E0771 murine breast tumor model; details: approximately 0.009 μmol drug/mouse every 4 days, 3 treatments
STING [3] = target: T1, STING (Homo sapiens, UniProt Q86WV6, G230A/H232R/R293Q/R71H); assay: THP1-Dual reporter assay (IRF-luciferase, Quanti-Luc) for activation of STING; assay type: cell-based; details: for STING activation / interferon production in THP-1 Dual reporter cells, in words: qualitative comparison of dose-response curves
T1 construct: host or cells: THP1-Dual cells
Experimental: Activation of STING. […] Cells were subjected to 10 μg/mL Blasticidin and 100 μg/mL Zeocin for continual selection after every cell passage. […] Reporter cells were seeded at 25,000 cells/well in 100 μL media and treatments were administered in 100 μL of medium.

IRF and NF-kb pathway = assay: THP-1 Dual reporter assay of IRF and NF-kb pathway activation; assay type: cell-based, human; details: FIG. 19A-B
Experimental: Activation of STING. THP1-Dual cells (InvivoGen) were cultured in Roswell Park Memorial Institute (RPMI) 1640 Medium (Gibco) supplemented with 2 mM L-glutamine, 25 mM HEPES, 10% heat-inactivated fetal bovine serum (HI-FBS; Gibco), 100 U mL^−1, penicillin/100 μg mL^−1, streptomycin (Gibco), and 100 μg/mL Normocin. Cells were subjected to 10 μg/mL Blasticidin and 100 μg/mL Zeocin for continual selection after every cell passage. 96-well plates (REF 655180; Greiner Bio-One) were used for screening agonist activity. Reporter cells were seeded at 25,000 cells/well in 100 μL media and treatments were administered in 100 μL of medium. Results were collected 24 hours after treatment using a Quanti-Luc™ (InvivoGen) assay on cell supernatants following manufacturer's instructions. Luminescence was quantified using a plate reader (Synergy H1 Multi-Mode Microplate Reader; Biotek) after supernatants were transferred to opaque-bottom 96-well plates (REF 655073; Greiner Bio-One).

[4] = test system: STING knockout THP1 Dual cell line; assay: STING knockout THP1 Dual cell line reporter assay; assay type: cell-based, human; details: FIG. 19C-D
[5] = target: T2, Recombinant Mouse Cathepsin B (Mus musculus, UniProt P10605); assay: Cathepsin-B release / enzyme cleavability assay with MALDI-MS; assay type: biochemical; details: 50 μM substrate, 0.2 μM cathepsin B
T2 construct: purchased RND Systems
Experimental: Enzyme Cleavability Studies. Recombinant Mouse Cathepsin B (RND Systems) was prepared at 50 μM in MES buffer (pH 5.0) upon opening and kept in −80° C. conditions when not in use. To activate the enzyme, Cathepsin B was diluted to 0.2 μM in MES buffer (pH 5.0) containing 1 mM EDTA and 2 mM DTT and placed at 37° C. for 15 minutes. After activation, Cathepsin B was combined with 50 μM of substrate at 37° C. for 37 hours at a total volume of 100 μL. Activity was determined by observing molecular weight shifts in the substrate using matrix assisted laser desorption and ionization mass spectrometry (MALDI-MS). 4 μL of Matrix (20 mg mL^−1 THAP and 20 mg mL^−1 CHCA in dry acetone) was combined with 1 μL of sample from the Cathepsin B activity assay and spotted on a stainless steel MALDI-MS plate (Bruker). After evaporation of matrix, three technical replicates were collected for each spot using FlexControl software (Bruker Daltonics) on a Bruker AutoFlex MALDI-TOF. The laser pulse rate was 1000 Hz and spectra were obtained with a mass window of 600-5000 m/z at high resolution (4.00 GS/s). FlexAnalysis software (Bruker Daltonics) was used to perform unbiased smoothing and obtain baseline spectra for all samples. Spectra were exported to Microsoft Excel and spectra were plotted using MATLAB.

STING [6] = target: T3, STING (Mus musculus, UniProt Q3TBT3); assay: Interferon-β sandwich ELISA on isolated primary murine splenocytes; assay type: cell-based
T3 construct: from tissue; host or cells: primary splenocytes from spleens of female C57BL/6 mice
T3 sequence (Q3TBT3 1-378): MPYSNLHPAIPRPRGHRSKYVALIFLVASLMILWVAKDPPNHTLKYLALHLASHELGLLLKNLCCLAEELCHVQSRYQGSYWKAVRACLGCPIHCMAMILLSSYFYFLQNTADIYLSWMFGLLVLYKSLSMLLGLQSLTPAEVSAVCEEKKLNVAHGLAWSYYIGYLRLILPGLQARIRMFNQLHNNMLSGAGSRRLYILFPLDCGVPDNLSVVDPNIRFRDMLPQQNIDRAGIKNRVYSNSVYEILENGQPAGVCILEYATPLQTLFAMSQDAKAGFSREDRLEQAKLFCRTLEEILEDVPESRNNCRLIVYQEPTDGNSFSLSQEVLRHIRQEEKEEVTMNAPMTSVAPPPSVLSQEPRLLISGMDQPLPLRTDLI
Experimental: The activity in primary murine splenocytes, which comprises a mixture of different immune cell populations, using ELISA was used to quantify secreted interferon-β (IFN-β), a signature cytokine of STING pathway activity.
Secretion of Interferon-β (IFN-β) ELISA. […] Cells were centrifuged and resuspended in fresh media at a concentration of 3 million cells per mL. Cells were seeded in a 96-well round bottom plate at 100 μL per well and treatments were administered in 100 μL of medium.

[7] = target: T4, recombinant human STING (hSTING; STING isoform 1) (Homo sapiens, UniProt Q86WV6); assay: Isothermal calorimetry (ITC) binding to recombinant human STING
T4 construct: made in house; host or cells: Escherichia coli (New England Biolabs, T7 Shuffle Express line)
Experimental: hSTING Binding Studies. […] Buffer exchange was performed prior to ITC (pH 7.5: PBST, 150 mM NaCl, 3 mM EDTA, 0.05% Tween 20), using Amicon Ultra 4 mL centrifugal filters (Millipore, Etobicoke, Canada). ITC experiments were performed on a TA Instruments Affinity ITC instrument. 24 total injections were performed using the following instrument settings: cell temperature 25° C., reference power 10 μCal/second, initial delay 240 seconds, stirring speed 75 rpm, feedback mode/gain high, and injection volume 2 μL for 10 seconds spaced at 120 second intervals with a filter period of 10 seconds. hSTING was set in the cell at a concentration of 10 μM and a volume of 350 μL. […] Data were analyzed using TA Instruments NanoAnalyze Software.

B16.F10 melanoma = details: intravenous, every 3 days, 3 treatments, 0.035 umol diABZI/mouse
Experimental: Tumor volume was measured until day 18 when the first tumor reached 1500 mm^3 (FIG. 9E).

[8] = FIG. 5, IRF signaling at 24 hours, read-out: EC50, STING activation in THP-1 Dual reporter cell lines
[9] = Table 2, FIG. 18A, IRF signaling in THP-1 Dual reporter cells, read-out: EC50 value
[10] = FIG. 3A, 24 hours, read-out: estimated EC50, IRF signaling in THP1-Dual reporter cells
[11] = FIG. 3B, 24 hours, read-out: EC50, IFN-β production in primary murine splenocytes (ELISA)

T4 sequence (Q86WV6 whole entry H232R, canonical isoform): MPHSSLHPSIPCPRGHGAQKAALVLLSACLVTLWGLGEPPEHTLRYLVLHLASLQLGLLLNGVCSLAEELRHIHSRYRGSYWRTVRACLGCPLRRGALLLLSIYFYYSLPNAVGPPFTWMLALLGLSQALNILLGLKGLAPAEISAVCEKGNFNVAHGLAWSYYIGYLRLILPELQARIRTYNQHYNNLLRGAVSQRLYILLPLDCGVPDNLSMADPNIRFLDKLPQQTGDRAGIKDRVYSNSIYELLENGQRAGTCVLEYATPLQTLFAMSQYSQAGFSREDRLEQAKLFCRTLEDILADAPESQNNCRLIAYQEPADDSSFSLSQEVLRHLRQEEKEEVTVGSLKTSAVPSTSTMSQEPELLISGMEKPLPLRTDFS
T1 sequence (Q86WV6 whole entry R71H/G230A/H232R/R293Q): as the sequence (Q86WV6 whole entry H232R, canonical isoform) above, with R71H, G230A, R293Q counted along it
T2 sequence (P10605 80-333 limits assumed): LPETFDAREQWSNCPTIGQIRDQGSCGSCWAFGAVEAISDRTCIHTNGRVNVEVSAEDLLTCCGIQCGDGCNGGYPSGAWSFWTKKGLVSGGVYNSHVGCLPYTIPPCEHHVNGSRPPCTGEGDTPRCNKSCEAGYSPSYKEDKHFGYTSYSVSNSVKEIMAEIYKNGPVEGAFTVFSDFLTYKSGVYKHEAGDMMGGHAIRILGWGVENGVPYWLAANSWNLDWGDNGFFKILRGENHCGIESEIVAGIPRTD

Compound: 25 kDa-poly(dimethylacrylamide-co-azidethylmethacrylate)-graft-diamidobenzimidazole) [25 kDa DMA-g-V/C-diABZI (28)]
- organ accumulation (biodistribution) [1]: accumulation in the kidney, tumor, and liver
- survival [2]: longer than the control and non-polymer conjugated compound
- treated mice with complete tumor regression [2]: approximately 20%

Compound: 100 kDa-poly(dimethylacrylamide-co-azidethylmethacrylate)-graft-diamidobenzimidazole) [100 kDa DMA-g-V/C-diABZI (29)]
- organ accumulation (biodistribution) [1]: accumulation mainly in the liver and tumor
- survival [2]: longer than the control and non-polymer conjugated compound
- treated mice with complete tumor regression [2]: ~37.5%

Compound: C#CCOC(=O)Nc1ccc(COC(=O)NCCCOc2cc(C(N)=O)cc3nc(NC(=O)c4cc(C)nn4CC)n(C/C=C/Cn4c(NC(=O)c5cc(C)nn5CC)nc5cc(C(N)=O)cc(OC)c54)c23)cc1 [Alkyne-PAB-diABZI (4), Alkyne-PAB-diABZI]
- STING activation / interferon production in THP-1 Dual reporter cells, in words (STING [3]): decrease in STING activation

Compound: CCn1nc(C)cc1C(=O)Nc1nc2cc(C(N)=O)cc(OC)c2n1C/C=C/Cn1c(NC(=O)c2cc(C)nn2CC)nc2cc(C(N)=O)cc(OCCCNC(=O)CCCCC(=O)N3Cc4ccccc4C#Cc4ccccc43)c21 [diABZI-DBCO (8), diABZI-DBCO]
- STING activation / interferon production in THP-1 Dual reporter cells, in words (STING [3]): elicit STING activation

Compound: CCSC(=S)SC(C)(C#N)CCC(=O)NCCCOc1cc(C(N)=O)cc2nc(NC(=O)c3cc(C)nn3CC)n(C/C=C/Cn3c(NC(=O)c4cc(C)nn4CC)nc4cc(C(N)=O)cc(OC)c43)c12 (stereo not shown) [diABZI-ECT (10), diABZI-ECT]
- EC50 (STING [3]; [8]): 3.06 nM
- EC50 (STING [3]; [9]): 7.21 nM
- STING activation / interferon production in THP-1 Dual reporter cells, in words (STING [3]): significantly more potent than diABZI-amine (1)
- STING activation / interferon production in THP-1 Dual reporter cells, in words (STING [3]; listed as 10): nearly identical STING activation
- IRF and NF-kb pathway activation (IRF and NF-kb pathway): both signaling pathways are engaged
- IRF and NF-κβ responses in STING knockout cells [4]: lack of activity

Compound: CCn1nc(C)cc1C(=O)Nc1nc2cc(C(N)=O)cc(OC)c2n1C/C=C/Cn1c(NC(=O)c2cc(C)nn2CC)nc2cc(C(N)=O)cc(OCCCNC(=O)CCCCCN3C(=O)C=CC3=O)c21 [diABZI-Mal (2), diABZI-Mal]
- EC50 (STING [3]; [10]): 20.5 nM
- cathepsin B cleavage (molecular weight shift by MALDI-MS) [5]: no change in molecular weight
- EC50 (STING [6]; [11]): ~3.62 nM
- Kd [7]: 890 ± 547 nM

Compound: CCSC(=S)SC(C)(C#N)CCC(=O)NCCSSCCC(=O)NCCCOc1cc(C(N)=O)cc2nc(NC(=O)c3cc(C)nn3CC)n(C/C=C/Cn3c(NC(=O)c4cc(C)nn4CC)nc4cc(C(N)=O)cc(OC)c43)c12 (stereo not shown) [diABZI-SS-ECT (11), diABZI-SS-ECT]
- EC50 (STING [3]; [8]): 4.09 nM
- STING activation / interferon production in THP-1 Dual reporter cells, in words (STING [3]): significantly more potent than diABZI-amine (1)

Compound: CCn1nc(C)cc1C(=O)Nc1nc2cc(C(N)=O)cc(OC)c2n1C/C=C/Cn1c(NC(=O)c2cc(C)nn2CC)nc2cc(C(N)=O)cc(OCCCNC(=O)OCc3ccc(NC(=O)[C@H](CCCNC(N)=O)NC(=O)[C@@H](NC(=O)CCCCC(=O)N4Cc5ccccc5C#Cc5ccccc54)C(C)C)cc3)c21 [diABZI-V/C-DBCO (9), diABZI-V/C-DBCO]
- STING activation / interferon production in THP-1 Dual reporter cells, in words (STING [3]): elicit STING activation

Compound: CCn1nc(C)cc1C(=O)Nc1nc2cc(C(N)=O)cc(OC)c2n1C/C=C/Cn1c(NC(=O)c2cc(C)nn2CC)nc2cc(C(N)=O)cc(OCCCNC(=O)OCc3ccc(NC(=O)[C@H](CCCNC(N)=O)NC(=O)[C@@H](NC(=O)CCCCCN4C(=O)C=CC4=O)C(C)C)cc3)c21 [diABZI-V/C-Mal (3), diABZI-V/C-Mal]
- EC50 (STING [3]; [10]): 314 nM
- cathepsin B cleavage (molecular weight shift by MALDI-MS) [5]: shift in molecular weight from 1400.8 Da to 801.83 Da
- EC50 (STING [6]; [11]): ~3.38 nM
- Kd [7]: 207 ± 150 nM

Compound: CCn1nc(C)cc1C(=O)Nc1nc2cc(C(N)=O)cc(OC)c2n1C/C=C/Cn1c(NC(=O)c2cc(C)nn2CC)nc2cc(C(N)=O)cc(OCCCN)c21 [diABZI-amine (1), (E)-7-(3-aminopropoxy)-1-(4-(5-carbamoyl-2-(1-ethyl-3-methyl-1H-pyrazole-5-carboxamido)-7-methoxy-1H-benzo[d]imidazol-1-yl)but-2-en-1-yl)-2-(1-ethyl-3-methyl-1H-pyrazole-5-carboxamido)-1H-benzo[d]imidazole-5-carboxamide]
- EC50 (STING [3]; [10]): 60.9 nM
- EC50 (STING [3]; [9]): 78.6 nM
- tumor growth inhibition (B16.F10 melanoma): inhibited tumor growth to a comparable degree
- EC50 (STING [6]): ~2.24 nM
- Kd [7]: 70 ± 62 nM

Compound: C=C(C)C(=O)OCCSSCCC(=O)NCCCOc1cc(C(N)=O)cc2nc(NC(=O)c3cc(C)nn3CC)n(C/C=C/Cn3c(NC(=O)c4cc(C)nn4CC)nc4cc(C(N)=O)cc(OC)c43)c12 [diABZI-disulfide-methacrylate (15), diABZI-disulfide-methacrylate]
- STING activation / interferon production in THP-1 Dual reporter cells, in words (STING [3]): nearly identical STING activation

Compound: C=C(C)C(=O)OCCCCCC(=O)NCCCOc1cc(C(N)=O)cc2nc(NC(=O)c3cc(C)nn3CC)n(C/C=C/Cn3c(NC(=O)c4cc(C)nn4CC)nc4cc(C(N)=O)cc(OC)c43)c12 [diABZI-methacrylate (14), diABZI-methacrylate]
- STING activation / interferon production in THP-1 Dual reporter cells, in words (STING [3]): nearly identical STING activation

Compound: diABZI(CTA)-SS-poly-DMA (50k) [50 kDa diABZI-SS-DMA (35)]
- STING activation / interferon production in THP-1 Dual reporter cells, in words (STING [3]): activated STING in a similar range as the stably linked constructs

Compound: diABZI-5k PEG [diABZI-5k PEG (17)]
- STING activation / interferon production in THP-1 Dual reporter cells, in words (STING [3]): slightly higher activity

Compound: diABZI-20k PEG [diABZI-20k PEG (18)]
- STING activation / interferon production in THP-1 Dual reporter cells, in words (STING [3]): slightly higher activity
- tumor growth inhibition (B16.F10 melanoma): inhibited tumor growth to a comparable degree

Compound: diABZI-V/C-2k PEG [diABZI-V/C-2k PEG (19)]
- STING activation / interferon production in THP-1 Dual reporter cells, in words (STING [3]): active

Compound: diABZI-V/C-5k PEG [diABZI-V/C-5k PEG (20)]
- STING activation / interferon production in THP-1 Dual reporter cells, in words (STING [3]): active

Compound: diABZI-V/C-20k PEG [diABZI-V/C-20k PEG (21)]
- STING activation / interferon production in THP-1 Dual reporter cells, in words (STING [3]): active
- tumor growth inhibition (B16.F10 melanoma): inhibited tumor growth to a comparable degree
